The record followed here is article PMC4175002, “The Design and Synthesis of Potent and Selective Inhibitors of Trypanosoma brucei Glycogen Synthase Kinase 3 for the Treatment of Human African Trypanosomiasis” (Journal of Medicinal Chemistry, 2014).

The structures appear in SMILES notation.

The target in one assay is HsCDK2/cyclin A (Homo sapiens, UniProt P24941). In words: Radiometric Flashplate potency assay, HsCDK2/cyclin A. Type of assay: biochemical. The settings on record: for ratio HsCDK2/TbGSK3: ratio of IC50 values; for IC50: average of two or more experiments, 1 μM ATP. The method, then: (§1) For compound potency determinations, a radiometric 96-well Flashplate assay (PerkinElmer) was adopted. Compounds were solubilized in DMSO at a top concentration of 3 mM and serially diluted to achieve 10-point titration of final assay concentrations from 30 μM to 0.3 nM with a final DMSO concentration of 1% (v/v). The reaction mixtures contained 1 μM biotinylated GSP2 substrate, 1 μM ATP, 3.7 KBq/well [γ-33P]-ATP and 2.5 nM TbGSK3 in the TbGSK3 kinase assay buffer. GSK3 inhibitors were screened for selectivity assessment also against HsGSK3β. For HsGSK3 assay, the reaction mixes contained 1 μM biotinylated GSP2 substrate, 2 μM ATP, 7.4 KBq/well [γ-33P]-ATP and 15 nM HsGSK3β in the TbGSK3 kinase assay buffer (25 mM Tris-HCl, pH 7.5, 10 mM MgCl2, 5 mM DTT, 0.02% CHAPS, 2 U/mL heparin). For HsCDK2/cyclin A assay, the reaction mixtures contained 1 mM CDK5 biotinylated peptide substrate (Biotin-C6-PKTPKKAKKL), 1 μM ATP, 7.4 KBq/well [γ-^33P]-ATP and 2 nM HsCDK2/cyclin A in the kinase assay buffer (50 mM Tris-HCl, pH 7.5, 10 mM MgCl2, 2 mM DTT, 100 mM NaCl, 0.2 mM EGTA, 0.02% (v/v) Brij35).
For the HsCDK2 assay, the analysis was performed using two different standards (GW8510 and staurosporine) tested respectively five times in a single run and 19 times in 2 independent runs. This implies that a difference of >0.3 in pIC50 can be considered statistically significant for this assay.

For the next assay, the target named is HsGSK3β (Homo sapiens, UniProt P49841). Put plainly: Radiometric Flashplate potency assay, HsGSK3β. It is filed as biochemical. The settings on record: for ratio HsGSK3β/TbGSK3: ratio of IC50 values. The method, then: as §1
Sequence of HsGSK3β (P49841 whole entry): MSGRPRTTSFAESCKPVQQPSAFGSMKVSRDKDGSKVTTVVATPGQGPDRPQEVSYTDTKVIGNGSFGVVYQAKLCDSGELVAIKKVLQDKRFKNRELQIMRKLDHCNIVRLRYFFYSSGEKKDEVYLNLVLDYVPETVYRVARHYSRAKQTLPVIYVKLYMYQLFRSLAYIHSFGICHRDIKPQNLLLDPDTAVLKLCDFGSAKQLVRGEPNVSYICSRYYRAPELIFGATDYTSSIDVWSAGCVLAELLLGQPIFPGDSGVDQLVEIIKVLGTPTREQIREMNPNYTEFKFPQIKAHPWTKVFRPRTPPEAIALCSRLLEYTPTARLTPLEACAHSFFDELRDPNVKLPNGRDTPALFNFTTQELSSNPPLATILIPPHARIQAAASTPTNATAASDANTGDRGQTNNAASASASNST
This implies that a difference of >0.3 in pIC50 can be considered statistically significant for this assay.

The next assay concerns the target T1, TbGSK3 short (Trypanosoma brucei brucei, UniProt Q388M1).
T1 sequence (Q388M1 1-352): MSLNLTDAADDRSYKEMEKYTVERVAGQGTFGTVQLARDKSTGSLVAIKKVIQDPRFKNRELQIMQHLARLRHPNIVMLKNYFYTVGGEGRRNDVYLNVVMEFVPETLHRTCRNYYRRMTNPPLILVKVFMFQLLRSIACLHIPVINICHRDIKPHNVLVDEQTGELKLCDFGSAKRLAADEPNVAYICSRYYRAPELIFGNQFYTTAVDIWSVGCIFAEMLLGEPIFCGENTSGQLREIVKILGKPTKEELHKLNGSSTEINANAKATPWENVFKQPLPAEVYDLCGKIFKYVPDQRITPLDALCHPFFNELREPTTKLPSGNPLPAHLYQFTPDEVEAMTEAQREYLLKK
In words: Radiometric 96-well Flashplate potency assay, TbGSK3. It is filed as biochemical. The settings on record: for decrease in potency against TbGSK3: relative to cyclohexane analogue 9c. The method, then:
as §1
The statistical significance of the compound potency (IC50) was based on the performance of standard molecules which have been tested to a high replication. In the case of TbGSK3 short assay, the standard compound GW8510 was tested 93 times across 9 independent runs. […] The minimum significant ratio (MSR) of 0.4 was evaluated considering the following formula: [drawing 1] where SD is the standard deviation and N the number of replicate values routinely used for the assay (2 in our case).[31] This implies that a difference of >0.4 in pIC50 can be considered statistically significant for this assay.

The next assay relates to MRC5 cells. In words: MRC5 proliferation assay (resazurin). Type of assay: cell-based, human. The settings on record: T. b. brucei versus MRC5 EC50. The method, then: Measurement of inhibition of the proliferation of MRC5 (human lung fibroblast) cells and T. b. brucei bloodstream stage cells was performed using a modification of the cell viability assay previously described.[33] Compounds (50 μM to 0.5 nM) were incubated with 2 × 10^3 cells/well in 0.2 mL of the appropriate culture medium (MEM with 10% fetal bovine serum for MRC5 cells) in clear 96-well plates. Plates were incubated at 37 °C in the presence of 5% CO2 for 69 h. Resazurin was then added to a final concentration of 50 μM, and plates were incubated as above for a further 4 h before being read on a BioTek flx800 fluorescent plate reader.
Background: Resazurin is reduced to fluorescent resorufin, in cell work by metabolically active cells.

For `CO[C@H]1CC[C@H](NC(=O)c2n[nH]cc2NC(=O)c2ccccc2F)CC1` [Compound 4g, 4-(2-Fluorobenzamido)-N-(4-methoxycyclohexyl)-1H-pyrazole-3-carboxamide], the “ratio HsCDK2/TbGSK3” value on HsCDK2/cyclin A is given as less than 0.7.
For `CO[C@H]1CC[C@H](NC(=O)c2n[nH]cc2NC(=O)c2ccccc2C(F)(F)F)CC1` [Compound 4h, N-(4-Methoxycyclohexyl)-4-(2-(trifluoromethyl)benzamido)-1H-pyrazole-3-carboxamide], at HsGSK3β, the “ratio HsGSK3β/TbGSK3” value was less than 0.72.
For the compound `CO[C@H]1CC[C@H](NC(=O)c2n[nH]cc2NC(=O)c2ccccc2Nc2ccccc2)CC1` [Compound 4k, N-(4-Methoxycyclohexyl)-4-(2-(phenylamino)benzamido)-1H-pyrazole-3-carboxamide], on HsCDK2/cyclin A, the IC50 was greater than 10 µM and the “ratio HsCDK2/TbGSK3” value is greater than 910.
As to `CO[C@H]1CC[C@H](NC(=O)c2n[nH]cc2NC(=O)c2ccccc2Nc2cccc(C)c2C)CC1` [Compound 4l, 4-(2-((2,3-Dimethylphenyl)amino)benzamido)-N-(4-methoxycyclohexyl)-1H-pyrazole-3-carboxamide], at HsCDK2/cyclin A, the IC50 is greater than 10 µM and the “ratio HsCDK2/TbGSK3” value is on record as greater than 150.
On to `COc1cc(OC)c(C(=O)Nc2c[nH]nc2C(=O)N[C@H]2CC[C@H](OC)CC2)c(OC)c1` [Compound 4n, N-(4-Methoxycyclohexyl)-4-(2,4,6-trimethoxybenzamido)-1H-pyrazole-3-carboxamide], for which, at TbGSK3 short (more potent than the unsubstituted phenyl compound 4f), the “TbGSK3 potency relative to 4f” value is reported as “approximately 10 fold”. In addition, the “selectivity over HsGSK3” value at HsGSK3β (TbGSK3 versus HsGSK3, running text) is reported as greater than 10 fold. Also, at HsCDK2/cyclin A (TbGSK3 versus HsCDK2, running text), the “selectivity over HsCDK2” value is listed as greater than 1000 fold. In the assay on MRC5 cells, the “selectivity over MRC5 cells” value was greater than 9 fold.
In the case of `CO[C@H]1CC[C@H](NC(=O)c2n[nH]cc2NC(=O)c2ccc(F)cc2F)CC1` [Compound 4o, 4-(2,4-Difluorobenzamido)-N-(4-methoxycyclohexyl)-1H-pyrazole-3-carboxamide], on HsGSK3β, the “ratio HsGSK3β/TbGSK3” value was less than 0.09.
On to `CO[C@H]1CC[C@H](NC(=O)c2n[nH]cc2NC(=O)c2cc(F)cc(F)c2)CC1` [Compound 4p, 4-(3,5-Difluorobenzamido)-N-(4-methoxycyclohexyl)-1H-pyrazole-3-carboxamide], for which, at HsGSK3β, the “ratio HsGSK3β/TbGSK3” value was less than 0.21.
On the same count and under the same terms, the same measure for `CO[C@H]1CC[C@H](NC(=O)c2n[nH]cc2NC(=O)c2cc(Cl)cc(Cl)c2)CC1` [Compound 4q, 4-(3,5-Dichlorobenzamido)-N-(4-methoxycyclohexyl)-1H-pyrazole-3-carboxamide]: less than 0.08; for `CO[C@H]1CC[C@H](NC(=O)c2n[nH]cc2NC(=O)c2ccc(OC(F)F)cc2)CC1` [Compound 4r, 4-(4-(Difluoromethoxy)benzamido)-N-(4-methoxycyclohexyl)-1H-pyrazole-3-carboxamide]: less than 0.31.
As to `CO[C@H]1CC[C@H](NC(=O)c2n[nH]cc2NC(=O)c2ccc(N3CCCC3)cc2)CC1` [Compound 4s, N-(4-Methoxycyclohexyl)-4-(4-(pyrrolidin-1-yl)benzamido)-1H-pyrazole-3-carboxamide], on HsGSK3β, the “ratio HsGSK3β/TbGSK3” value is on record as less than 0.26. Moreover, in the assay with MRC5 cells, the “selectivity over MRC5 cells” value was greater than 19 fold.
`CO[C@H]1CC[C@H](NC(=O)c2n[nH]cc2NC(=O)c2ccc(N3CCN(C)CC3)cc2)CC1` [Compound 4t, N-(4-Methoxycyclohexyl)-4-(4-(4-methylpiperazin-1-yl)benzamido)-1H-pyrazole-3-carboxamide]: the “ratio HsGSK3β/TbGSK3” value on HsGSK3β was less than 0.071.
On the same count and under the same terms, for `CO[C@H]1CC[C@H](NC(=O)c2n[nH]cc2NC(=O)c2cc3ccccc3o2)CC1` [Compound 4u, 4-(Benzofuran-2-carboxamido)-N-(4-methoxycyclohexyl)-1H-pyrazole-3-carboxamide] the value was less than 0.38; for `CO[C@H]1CC[C@H](NC(=O)c2n[nH]cc2NC(=O)c2cc3ccccn3n2)CC1` [Compound 4v, N-(3-((4-Methoxycyclohexyl)carbamoyl)-1H-pyrazol-4-yl)pyrazolo[1,5-a]pyridine-2-carboxamide], less than 0.080.
For `CO[C@H]1CC[C@H](NC(=O)c2n[nH]cc2NC(=O)c2cnc3ccccn23)CC1` [Compound 4w, N-(3-((4-Methoxycyclohexyl)carbamoyl)-1H-pyrazol-4-yl)imidazo[1,2-a]pyridine-3-carboxamide], at HsGSK3β, the “ratio HsGSK3β/TbGSK3” value was less than 0.053.
Turning to `CO[C@H]1CC[C@H](NC(=O)c2n[nH]cc2NC(=O)c2c(C)nc3ccccn23)CC1` [Compound 4x, N-(3-((4-Methoxycyclohexyl)carbamoyl)-1H-pyrazol-4-yl)-2-methylimidazo[1,2-a]pyridine-3-carboxamide], in the assay on MRC5 cells, the “selectivity over MRC5 cells” value amounted to 12 fold.
In the case of `COc1cccc(OC)c1C(=O)Nc1c[nH]nc1C(=O)NC1CC1` [Compound 9a, N-Cyclopropyl-4-(2,6-dimethoxybenzamido)-1H-pyrazole-3-carboxamide], the “ratio HsCDK2/TbGSK3” value at HsCDK2/cyclin A is given as greater than 830.
As to `COc1cccc(OC)c1C(=O)Nc1c[nH]nc1C(=O)NC1CCCCC1` [Compound 9c, N-Cyclohexyl-4-(2,6-dimethoxybenzamido)-1H-pyrazole-3-carboxamide], the “selectivity over MRC5 cells” value in the assay with MRC5 cells was greater than 7 fold.
For `COc1cccc(OC)c1C(=O)Nc1c[nH]nc1C(=O)NC1CCCCCC1` [Compound 9d, N-Cycloheptyl-4-(2,6-dimethoxybenzamido)-1H-pyrazole-3-carboxamide], the “selectivity over MRC5 cells” value in the assay on MRC5 cells is greater than 7 fold.
Consider `COc1cccc(OC)c1C(=O)Nc1c[nH]nc1C(=O)Nc1ccccc1` [Compound 9k, 4-(2,6-Dimethoxybenzamido)-N-phenyl-1H-pyrazole-3-carboxamide], for which, on TbGSK3 short, the “decrease in potency against TbGSK3” value came to 6 fold.
`COc1cccc(OC)c1C(=O)Nc1c[nH]nc1C(=O)Nc1ccncc1` [Compound 9l, 4-(2,6-Dimethoxybenzamido)-N-(pyridin-4-yl)-1H-pyrazole-3-carboxamide]: the “decrease in potency against TbGSK3” value at TbGSK3 short is on record as 6 fold.
Consider `COc1cccc(OC)c1C(=O)Nc1c[nH]nc1C(=O)Nc1ccccn1` [Compound 9m, 4-(2,6-Dimethoxybenzamido)-N-(pyridin-2-yl)-1H-pyrazole-3-carboxamide], for which the “loss of activity against TbGSK3” value at TbGSK3 short (2-pyridine analogue much less active, comparator not stated clearly (9c or 9k/9l)) came out at 50 fold.
Regarding `CCCCCNC(=O)c1n[nH]cc1NC(=O)c1c(OC)cccc1OC` [Compound 9s, 4-(2,6-Dimethoxybenzamido)-N-pentyl-1H-pyrazole-3-carboxamide], the “ratio HsGSK3β/TbGSK3” value on HsGSK3β is 100. The “selectivity over MRC5 cells” value with MRC5 cells is recorded as greater than 7 fold.
`COc1cccc(OC)c1C(=O)Nc1c[nH]nc1C(=O)NCCCOC(C)C` [Compound 9t, 4-(2,6-Dimethoxybenzamido)-N-(3-isopropoxypropyl)-1H-pyrazole-3-carboxamide]: in the assay on MRC5 cells, the “selectivity over MRC5 cells” value was greater than 7 fold.
Turning to `COc1cccc(OC)c1C(=O)Nc1c[nH]nc1C(=O)N[C@H]1CC[C@H](OC)CC1` [Compound 9x], on HsGSK3β, the “ratio HsGSK3β/TbGSK3” value was less than 2.5.
Regarding `O=C1Nc2ccc3ncsc3c2/C1=C/Nc1ccc(S(=O)(=O)Nc2ccccn2)cc1` [GW8510, reference compound], the “average pIC50 TbGSK3 short assay” value at TbGSK3 short (standard compound tested 93 times across 9 independent runs, SD 0.23) turned out to be 8.26. The “average pIC50 HsGSK3 assay” value at HsGSK3β (standard compound tested 47 times across 5 independent runs, SD 0.21) is reported as 8.10.

The IC50 is the concentration that inhibits the measured activity by half. Lower therefore signals greater potency.
